Experiments:
Format in all cases: cell-based
MDA-MB-231 cells = test: Annexin V/PI staining with or without bafilomycin A1, 2 days; settings: 5 μM
Source text: The effect was increased with bafilomycin A1 cotreatment.

BRAF = test: Phosphoproteomic analysis, MDA-MB-231; settings: 5 μM, 2 hours, T-test p<0,05
Procedure: Following treatment, a sample of each of the three treatments was analyzed by Western Blot for expression of phosphoprotein targets.
In addition to western blot analysis, the cell lysate samples underwent phosphoproteomic analysis.

pRb = test: Western blot, MDA-MB-231 cells, 24 hours; settings: 2.5, 5, 10 μM, versus Comparator 1, 2 and 4
Caspase 3/7 = Caspase 3/7 Glo assay with or without bafilomycin A1, MDA-MB-231 cells, 2 days; settings: 5 μM
Source text: FIGS. 34 and 35 show Caspase 3/7 activity as measured by the Caspase 3/7 Glo assay. […] The effect was enhanced by co-treatment with bafilomycin A1 cotreatment.

Hs578T spheroids = test: CellTiter Glo 3D spheroid viability; settings: 48 hours; Compound 1, Comparator 1, Comparator 2 5 μM; Comparator 4 10 μM
Procedure: Viability of the spheroids was assessed using CellTiter Glo 3D.

CPD = molecular target: T1, CPD (Homo sapiens, UniProt O75976); test: CETSA-MS, MDA-MB-231 intact cells; settings: 2 μM and 20 μM
T1 construct: 148 targets unique to Compound 1 in MDA-MB-231 intact cells; endogenous in cells; host or cells: MDA-MB-231
Outline: (§1)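 Intact MDA-MB-231 cells were incubated with compound, pelleted, washed and heated across a thermal gradient. After freeze-lysis, sonication and centrifugation, soluble protein was acetone-precipitated, digested, labeled and quantified by mass spectrometry proteomics to track thermal stabilization.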

FGFRL1 = molecular target: T2, FGFRL1 (Homo sapiens, UniProt Q8N441); test: CETSA-MS, MDA-MB-231 intact cells; settings: 2 μM and 20 μM
T2 construct: 148 targets unique to Compound 1 in MDA-MB-231 intact cells; endogenous in cells; host or cells: MDA-MB-231
Outline: as §1

CBX5 = molecular target: T3, CBX5 (Homo sapiens, UniProt P45973); test: CETSA-MS, MDA-MB-231 intact cells; settings: 2 μM and 20 μM
T3 construct: endogenous in cells; host or cells: MDA-MB-231
Outline: as §1

LRCH4 = molecular target: T4, LRCH4 (Homo sapiens, UniProt O75427); test: CETSA-MS, MDA-MB-231 intact cells; settings: 2 μM and 20 μM
T4 construct: endogenous in cells; host or cells: MDA-MB-231
Outline: as §1

BMP2K = molecular target: T5, BMP2K (Homo sapiens, UniProt Q9NSY1); test: CETSA-MS, MDA-MB-231 intact cells; settings: 2 μM and 20 μM
T5 construct: endogenous in cells; host or cells: MDA-MB-231
Outline: as §1

HNRNPUL2 = molecular target: T6, HNRNPUL2 (Homo sapiens, UniProt Q1KMD3); test: CETSA-MS, MDA-MB-231 intact cells; settings: 2 μM and 20 μM
T6 construct: endogenous in cells; host or cells: MDA-MB-231
Outline: as §1

TAF15 = molecular target: T7, TAF15 (Homo sapiens, UniProt Q92804); test: CETSA-MS, MDA-MB-231 intact cells; settings: 2 μM and 20 μM
T7 construct: endogenous in cells; host or cells: MDA-MB-231
Outline: as §1

NPM1 = molecular target: T8, NPM1 (Homo sapiens, UniProt P06748); test: CETSA-MS, MDA-MB-231 intact cells; settings: 2 μM and 20 μM
T8 construct: endogenous in cells; host or cells: MDA-MB-231
Outline: as §1

UFL1 = molecular target: T9, UFL1 (Homo sapiens, UniProt O94874); test: CETSA-MS, MDA-MB-231 intact cells; settings: 2 μM and 20 μM
T9 construct: endogenous in cells; host or cells: MDA-MB-231
Outline: as §1

PIK3R4 = molecular target: T10, PIK3R4 (Homo sapiens, UniProt Q99570); test: CETSA-MS, MDA-MB-231 intact cells; settings: 2 μM and 20 μM
T10 construct: endogenous in cells; host or cells: MDA-MB-231
Outline: as §1

HSPA13 = molecular target: T11, HSPA13 (Homo sapiens, UniProt P48723); test: CETSA-MS, MDA-MB-231 intact cells; settings: 2 μM and 20 μM
T11 construct: endogenous in cells; host or cells: MDA-MB-231
Outline: as §1

SART3 = molecular target: T12, SART3 (Homo sapiens, UniProt Q15020); test: CETSA-MS, MDA-MB-231 intact cells; settings: 2 μM and 20 μM
T12 construct: endogenous in cells; host or cells: MDA-MB-231
Outline: as §1

APP = molecular target: T13, APP (Homo sapiens, UniProt P05067); test: CETSA-MS, MDA-MB-231 intact cells; settings: 2 μM and 20 μM
T13 construct: endogenous in cells; host or cells: MDA-MB-231
Outline: as §1

LAMC1 = molecular target: T14, LAMC1 (Homo sapiens, UniProt P11047); test: CETSA-MS, MDA-MB-231 intact cells; settings: 2 μM and 20 μM
T14 construct: endogenous in cells; host or cells: MDA-MB-231
Outline: as §1

MRC2 = molecular target: T15, MRC2 (Homo sapiens, UniProt Q9UBG0); test: CETSA-MS, MDA-MB-231 intact cells; settings: 2 μM and 20 μM
T15 construct: endogenous in cells; host or cells: MDA-MB-231
Outline: as §1

AAK1 = molecular target: T16, AAK1 (Homo sapiens, UniProt Q2M2I8); test: CETSA-MS, MDA-MB-231 intact cells; settings: 2 μM and 20 μM
T16 construct: endogenous in cells; host or cells: MDA-MB-231
Outline: as §1

MRPL55 = molecular target: T17, MRPL55 (Homo sapiens, UniProt Q7Z7F7); test: CETSA-MS, MDA-MB-231 intact cells; settings: 2 μM and 20 μM
T17 construct: endogenous in cells; host or cells: MDA-MB-231
Outline: as §1

YES1 = molecular target: T18, YES1 (Homo sapiens, UniProt P07947); test: CETSA-MS, MDA-MB-231 intact cells; settings: 2 μM and 20 μM
T18 construct: endogenous in cells; host or cells: MDA-MB-231
Outline: as §1

AIFM2 = molecular target: T19, AIFM2 (Homo sapiens, UniProt Q9BRQ8); test: CETSA-MS, MDA-MB-231 intact cells; settings: 2 μM and 20 μM
T19 construct: endogenous in cells; host or cells: MDA-MB-231
Outline: as §1

JMY = molecular target: T20, JMY (Homo sapiens, UniProt Q8N9B5); test: CETSA-MS, MDA-MB-231 intact cells; settings: 2 μM and 20 μM
T20 construct: endogenous in cells; host or cells: MDA-MB-231
Outline: as §1

GSK3B = molecular target: T21, GSK3B (Homo sapiens, UniProt P49841); test: CETSA-MS, MDA-MB-231 intact cells; settings: 2 μM and 20 μM
T21 construct: endogenous in cells; host or cells: MDA-MB-231
Outline: as §1

METTL18 = molecular target: T22, METTL18 (Homo sapiens, UniProt O95568); test: CETSA-MS, MDA-MB-231 intact cells; settings: 2 μM and 20 μM
T22 construct: endogenous in cells; host or cells: MDA-MB-231
Outline: as §1

BOD1L1 = molecular target: T23, BOD1L1 (Homo sapiens, UniProt Q8NFC6); test: CETSA-MS, MDA-MB-231 intact cells; settings: 2 μM and 20 μM
T23 construct: endogenous in cells; host or cells: MDA-MB-231
Outline: as §1

CAVIN3 = molecular target: T24, CAVIN3 (Homo sapiens, UniProt Q969G5); test: CETSA-MS, MDA-MB-231 intact cells; settings: 2 μM and 20 μM
T24 construct: endogenous in cells; host or cells: MDA-MB-231
Outline: as §1

HNRNPA2B1 = molecular target: T25, HNRNPA2B1 (Homo sapiens, UniProt P22626); test: CETSA-MS, MDA-MB-231 intact cells; settings: 2 μM and 20 μM
T25 construct: 148 targets unique to Compound 1 in MDA-MB-231 intact cells; endogenous in cells; host or cells: MDA-MB-231
Outline: as §1

RIPK 1 = molecular target: T26, RIPK 1 (Homo sapiens, UniProt Q13546); test: CETSA-MS, MDA-MB-231 intact cells; settings: 2 μM and 20 μM
T26 construct: endogenous in cells; host or cells: MDA-MB-231
Outline: as §1

GAK = molecular target: T27, GAK (Homo sapiens, UniProt O14976); test: CETSA-MS, MDA-MB-231 intact cells; settings: 2 μM and 20 μM
T27 construct: 148 targets unique to Compound 1 in MDA-MB-231 intact cells; endogenous in cells; host or cells: MDA-MB-231
Outline: as §1

SCP2 = molecular target: T28, SCP2 (Homo sapiens, UniProt P22307); test: CETSA-MS, MDA-MB-231 intact cells; settings: 2 μM and 20 μM
T28 construct: endogenous in cells; host or cells: MDA-MB-231
Outline: as §1

T6 sequence (Q1KMD3 whole entry): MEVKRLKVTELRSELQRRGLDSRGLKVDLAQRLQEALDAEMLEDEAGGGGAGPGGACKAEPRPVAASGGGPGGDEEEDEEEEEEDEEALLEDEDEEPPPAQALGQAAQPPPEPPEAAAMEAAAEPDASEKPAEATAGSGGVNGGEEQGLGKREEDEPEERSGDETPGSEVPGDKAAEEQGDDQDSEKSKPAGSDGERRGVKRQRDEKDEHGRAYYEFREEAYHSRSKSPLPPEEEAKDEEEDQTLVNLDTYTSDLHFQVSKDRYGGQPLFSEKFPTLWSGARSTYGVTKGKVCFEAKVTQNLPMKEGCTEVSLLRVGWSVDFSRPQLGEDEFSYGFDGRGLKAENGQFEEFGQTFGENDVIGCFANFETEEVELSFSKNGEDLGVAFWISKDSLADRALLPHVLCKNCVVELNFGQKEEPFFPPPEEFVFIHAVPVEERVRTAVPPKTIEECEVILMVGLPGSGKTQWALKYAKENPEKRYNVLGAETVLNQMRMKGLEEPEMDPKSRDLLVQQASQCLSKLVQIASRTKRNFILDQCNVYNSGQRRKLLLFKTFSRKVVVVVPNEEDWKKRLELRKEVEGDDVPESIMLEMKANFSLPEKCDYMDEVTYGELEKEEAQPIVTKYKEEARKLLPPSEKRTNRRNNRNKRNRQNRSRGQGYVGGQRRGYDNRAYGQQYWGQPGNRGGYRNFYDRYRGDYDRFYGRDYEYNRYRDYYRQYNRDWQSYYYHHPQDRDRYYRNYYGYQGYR
T25 sequence (P22626 whole entry): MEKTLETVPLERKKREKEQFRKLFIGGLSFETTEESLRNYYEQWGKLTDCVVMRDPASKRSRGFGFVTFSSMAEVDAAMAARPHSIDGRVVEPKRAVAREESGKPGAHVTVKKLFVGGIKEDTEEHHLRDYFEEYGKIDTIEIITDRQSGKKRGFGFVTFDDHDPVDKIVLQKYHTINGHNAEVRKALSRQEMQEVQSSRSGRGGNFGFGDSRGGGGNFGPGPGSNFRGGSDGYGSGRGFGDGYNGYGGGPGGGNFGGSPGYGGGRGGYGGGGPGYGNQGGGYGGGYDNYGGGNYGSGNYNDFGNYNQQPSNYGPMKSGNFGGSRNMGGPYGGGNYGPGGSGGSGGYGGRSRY
T15 sequence (Q9UBG0 31-1479): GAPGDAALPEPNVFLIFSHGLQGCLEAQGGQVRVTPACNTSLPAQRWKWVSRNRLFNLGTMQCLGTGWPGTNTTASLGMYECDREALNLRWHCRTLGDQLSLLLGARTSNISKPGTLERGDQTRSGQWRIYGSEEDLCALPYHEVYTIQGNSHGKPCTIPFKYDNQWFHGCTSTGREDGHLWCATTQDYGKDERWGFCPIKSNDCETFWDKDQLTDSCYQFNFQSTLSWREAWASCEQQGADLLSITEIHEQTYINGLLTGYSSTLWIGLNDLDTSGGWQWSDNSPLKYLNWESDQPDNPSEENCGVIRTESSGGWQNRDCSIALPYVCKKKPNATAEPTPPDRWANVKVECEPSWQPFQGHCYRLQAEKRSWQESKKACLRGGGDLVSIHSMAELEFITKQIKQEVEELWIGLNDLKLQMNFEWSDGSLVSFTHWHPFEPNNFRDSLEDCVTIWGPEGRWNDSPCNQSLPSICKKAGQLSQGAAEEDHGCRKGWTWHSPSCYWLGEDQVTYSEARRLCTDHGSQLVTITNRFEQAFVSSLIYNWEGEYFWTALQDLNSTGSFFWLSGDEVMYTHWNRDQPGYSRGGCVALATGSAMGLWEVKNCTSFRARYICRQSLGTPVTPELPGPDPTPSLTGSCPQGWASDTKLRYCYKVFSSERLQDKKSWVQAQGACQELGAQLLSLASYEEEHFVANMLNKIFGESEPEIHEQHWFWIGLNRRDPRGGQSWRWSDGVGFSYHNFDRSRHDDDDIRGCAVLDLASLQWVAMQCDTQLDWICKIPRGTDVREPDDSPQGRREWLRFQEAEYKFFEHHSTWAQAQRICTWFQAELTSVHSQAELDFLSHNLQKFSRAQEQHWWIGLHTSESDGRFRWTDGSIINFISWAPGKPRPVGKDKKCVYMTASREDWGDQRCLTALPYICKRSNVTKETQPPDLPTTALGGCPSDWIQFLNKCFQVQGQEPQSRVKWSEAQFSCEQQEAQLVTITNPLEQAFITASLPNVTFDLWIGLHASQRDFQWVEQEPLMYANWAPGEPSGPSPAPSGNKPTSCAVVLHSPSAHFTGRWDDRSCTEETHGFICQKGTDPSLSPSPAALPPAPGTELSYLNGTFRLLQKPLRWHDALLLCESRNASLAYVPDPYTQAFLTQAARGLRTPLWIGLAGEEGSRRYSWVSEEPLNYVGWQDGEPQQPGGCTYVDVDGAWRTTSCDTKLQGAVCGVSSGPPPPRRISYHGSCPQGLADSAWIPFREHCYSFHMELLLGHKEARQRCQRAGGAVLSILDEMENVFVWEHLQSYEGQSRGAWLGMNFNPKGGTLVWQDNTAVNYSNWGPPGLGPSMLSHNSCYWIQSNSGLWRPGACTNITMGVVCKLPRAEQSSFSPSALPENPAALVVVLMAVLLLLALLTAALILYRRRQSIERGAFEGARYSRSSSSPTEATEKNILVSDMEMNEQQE
T19 sequence (Q9BRQ8 whole entry): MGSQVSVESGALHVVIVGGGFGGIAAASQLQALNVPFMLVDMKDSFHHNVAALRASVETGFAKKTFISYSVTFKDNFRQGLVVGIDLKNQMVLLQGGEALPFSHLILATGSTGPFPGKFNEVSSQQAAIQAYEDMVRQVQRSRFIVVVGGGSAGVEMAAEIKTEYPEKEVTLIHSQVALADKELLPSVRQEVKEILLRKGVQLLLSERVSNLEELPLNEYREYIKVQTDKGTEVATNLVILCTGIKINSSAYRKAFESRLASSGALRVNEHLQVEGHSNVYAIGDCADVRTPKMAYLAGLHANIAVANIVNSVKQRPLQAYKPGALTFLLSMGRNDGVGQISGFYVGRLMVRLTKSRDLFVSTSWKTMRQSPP
T7 sequence (Q92804 whole entry): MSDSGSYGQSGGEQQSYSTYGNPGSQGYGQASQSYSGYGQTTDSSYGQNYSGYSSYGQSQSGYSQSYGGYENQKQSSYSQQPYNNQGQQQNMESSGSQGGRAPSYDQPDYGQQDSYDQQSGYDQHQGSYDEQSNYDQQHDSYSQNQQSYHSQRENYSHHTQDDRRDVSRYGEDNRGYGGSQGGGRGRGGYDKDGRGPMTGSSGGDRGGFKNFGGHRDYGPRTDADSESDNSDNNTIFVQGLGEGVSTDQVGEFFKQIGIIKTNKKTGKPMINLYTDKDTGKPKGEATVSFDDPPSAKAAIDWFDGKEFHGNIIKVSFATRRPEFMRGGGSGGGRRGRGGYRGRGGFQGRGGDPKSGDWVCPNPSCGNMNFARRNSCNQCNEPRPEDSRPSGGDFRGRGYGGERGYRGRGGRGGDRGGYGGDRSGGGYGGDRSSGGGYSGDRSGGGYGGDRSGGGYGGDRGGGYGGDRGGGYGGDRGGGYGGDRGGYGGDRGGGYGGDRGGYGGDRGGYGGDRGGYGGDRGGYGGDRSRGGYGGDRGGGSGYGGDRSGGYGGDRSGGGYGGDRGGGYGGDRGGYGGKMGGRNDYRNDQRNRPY
T21 sequence (P49841 whole entry): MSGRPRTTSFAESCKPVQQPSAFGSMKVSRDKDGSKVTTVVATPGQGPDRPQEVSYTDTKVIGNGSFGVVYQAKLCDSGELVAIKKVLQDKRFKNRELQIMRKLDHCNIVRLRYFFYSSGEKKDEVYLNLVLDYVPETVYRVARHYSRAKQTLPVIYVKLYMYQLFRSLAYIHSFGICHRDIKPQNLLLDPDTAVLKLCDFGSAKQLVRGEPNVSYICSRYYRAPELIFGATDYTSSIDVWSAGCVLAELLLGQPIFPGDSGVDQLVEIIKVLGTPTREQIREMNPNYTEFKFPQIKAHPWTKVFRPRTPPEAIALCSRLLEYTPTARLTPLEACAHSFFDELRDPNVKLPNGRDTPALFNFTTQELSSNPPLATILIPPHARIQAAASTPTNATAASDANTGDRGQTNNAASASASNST
T13 sequence (P05067 18-770): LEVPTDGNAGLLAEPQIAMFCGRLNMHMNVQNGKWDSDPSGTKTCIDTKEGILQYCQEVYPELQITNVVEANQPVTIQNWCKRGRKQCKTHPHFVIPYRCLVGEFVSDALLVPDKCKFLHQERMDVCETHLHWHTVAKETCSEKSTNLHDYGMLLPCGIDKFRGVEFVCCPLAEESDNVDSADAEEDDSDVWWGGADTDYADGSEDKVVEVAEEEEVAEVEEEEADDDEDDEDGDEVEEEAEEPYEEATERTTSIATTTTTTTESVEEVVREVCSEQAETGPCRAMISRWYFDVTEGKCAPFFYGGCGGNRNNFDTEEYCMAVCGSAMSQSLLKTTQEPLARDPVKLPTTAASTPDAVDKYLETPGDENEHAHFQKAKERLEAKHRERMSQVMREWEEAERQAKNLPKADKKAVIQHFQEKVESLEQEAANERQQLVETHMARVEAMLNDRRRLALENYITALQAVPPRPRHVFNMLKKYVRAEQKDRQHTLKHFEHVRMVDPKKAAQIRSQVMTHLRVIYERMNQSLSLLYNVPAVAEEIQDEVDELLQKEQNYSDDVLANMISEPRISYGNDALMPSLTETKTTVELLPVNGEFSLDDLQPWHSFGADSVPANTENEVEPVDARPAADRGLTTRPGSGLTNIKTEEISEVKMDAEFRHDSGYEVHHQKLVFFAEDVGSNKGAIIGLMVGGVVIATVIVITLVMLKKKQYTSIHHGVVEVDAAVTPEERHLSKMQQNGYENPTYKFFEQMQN
T24 sequence (Q969G5 whole entry): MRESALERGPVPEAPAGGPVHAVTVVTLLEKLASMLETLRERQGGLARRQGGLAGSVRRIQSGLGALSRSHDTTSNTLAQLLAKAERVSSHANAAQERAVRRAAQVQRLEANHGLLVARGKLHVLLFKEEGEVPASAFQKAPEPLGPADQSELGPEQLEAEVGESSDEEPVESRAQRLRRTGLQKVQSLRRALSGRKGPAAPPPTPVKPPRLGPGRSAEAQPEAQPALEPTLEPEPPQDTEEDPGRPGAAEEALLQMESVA

With `CN1CCN(c2ccc(Nc3ncc4cc(C#N)c(=O)n(C5CCCC5)c4n3)cc2)CC1` [Compound 1, 8-cyclopentyl-2-((4-(4-methylpiperazin-1-yl)phenyl)amino)-7-oxo-7,8-dihydropyrido[2,3-d]pyrimidine-6-carbonitrile] as the molecule, how does the “cell death (Annexin V/PI), compound alone” value (MDA-MB-231 cells) read?
Its value is “induced cell death”.

And the “effect of bafilomycin A1 cotreatment on cell death (Annexin V/PI)” value (MDA-MB-231 cells)?
The value was “increased”.

And the “Significance (phosphopeptide target)” value (BRAF)?
Its value is “significant”.

What about the pRb levels (pRb) of the same molecule?
The pRb levels was “decreasing”.

What about the “Caspase 3/7 activity, compound alone” value (Caspase 3/7) of the same molecule?
The value was “increased Caspase 3/7 activity”.

What about the “effect of bafilomycin A1 cotreatment on Caspase 3/7 activity” value (Caspase 3/7) of the same molecule?
The value was “enhanced”.

And the “decrease in organoid viability compared to DMSO” value (Hs578T spheroids)?
The value was roughly 40%.

What about the “Group (CETSA-MS thermal shift)” value (CPD) of the same molecule?
Its value is “Stabilization”.

What about the “Group (CETSA-MS thermal shift)” value (FGFRL1) of the same molecule?
The value was “Stabilization”.

And the “Group (CETSA-MS thermal shift)” value (CBX5)?
Its value is “Stabilization”.

And the “Group (CETSA-MS thermal shift)” value (LRCH4)?
The value was “Stabilization”.

What about the “Group (CETSA-MS thermal shift)” value (BMP2K) of the same molecule?
Its value is “Stabilization”.

And the “Group (CETSA-MS thermal shift)” value (HNRNPUL2)?
Its value is “Stabilization”.

What about the “Group (CETSA-MS thermal shift)” value (TAF15) of the same molecule?
Its value is “Stabilization”.

What about the “Group (CETSA-MS thermal shift)” value (NPM1) of the same molecule?
The value was “Destabilization”.

What about the “Group (CETSA-MS thermal shift)” value (UFL1) of the same molecule?
Its value is “Stabilization”.

And the “Group (CETSA-MS thermal shift)” value (PIK3R4)?
Its value is “Stabilization”.

And the “Group (CETSA-MS thermal shift)” value (HSPA13)?
The value was “Stabilization”.

And the “Group (CETSA-MS thermal shift)” value (SART3)?
Its value is “Destabilization”.

What about the “Group (CETSA-MS thermal shift)” value (APP) of the same molecule?
The value was “Stabilization”.

And the “Group (CETSA-MS thermal shift)” value (LAMC1)?
Its value is “Stabilization”.

What about the “Group (CETSA-MS thermal shift)” value (MRC2) of the same molecule?
The value was “Stabilization”.

And the “Group (CETSA-MS thermal shift)” value (AAK1)?
The value was “Stabilization”.

What about the “Group (CETSA-MS thermal shift)” value (MRPL55) of the same molecule?
Its value is “Stabilization”.

And the “Group (CETSA-MS thermal shift)” value (YES1)?
Its value is “Destabilization”.

What about the “Group (CETSA-MS thermal shift)” value (AIFM2) of the same molecule?
Its value is “Destabilization”.

What about the “Group (CETSA-MS thermal shift)” value (JMY) of the same molecule?
The value was “Stabilization”.

And the “Group (CETSA-MS thermal shift)” value (GSK3B)?
The value was “Stabilization”.

What about the “Group (CETSA-MS thermal shift)” value (METTL18) of the same molecule?
The value was “Stabilization”.

What about the “Group (CETSA-MS thermal shift)” value (BOD1L1) of the same molecule?
Its value is “Destabilization”.

And the “Group (CETSA-MS thermal shift)” value (CAVIN3)?
Its value is “Stabilization”.

And the “Group (CETSA-MS thermal shift)” value (HNRNPA2B1)?
The value was “Stabilization”.

And the “Group (CETSA-MS thermal shift)” value (RIPK 1)?
The value was “Stabilization”.

And the “Group (CETSA-MS thermal shift)” value (GAK)?
Its value is “Stabilization”.

And the “Group (CETSA-MS thermal shift)” value (SCP2)?
Its value is “Destabilization”.

Reference: patent US20260183295A1, “METHODS AND COMPOSITIONS FOR TREATING CANCER” (Onconova Therapeutics, Inc., priority 2022, published 2026)
